Data taken from patent US20060189590A1, “Alkaline salts of proton pump inhibitors” (priority 2003, published 2006).

How the values were obtained:
Type in all cases: physicochemical
[1] = Storage stability at 70° C. for one week (discolouration, decomposition); conditions: for stability, discolouration and decomposition on storage: 70° C., one week, identical conditions for both salts
[2] = Storage stability under atmospheric conditions at 60-70° C. (by-products, HPLC purity)
Text: The compounds according to the invention and their hydrates can be used for the treatment and prevention of all disorders, which can be treated or prevented by using PPI. In particular, the compounds according to the invention and their hydrates can be used for treating gastric disorders. In this context particular mention should be made of the relatively high stability of compounds according to the invention and their hydrates. […] This relatively high storage stability makes the compounds according to the invention and their hydrates particularly suitable for use in medicaments.

[3] = Dissolution compared with racemic pantoprazole magnesium dihydrate

Row | Compound | stability, discolouration and decomposition on storage [1] | stability properties / stable storage form (general statement) ([1]; compared to the sodium salt of (−)-pantoprazole) | purity (according to HPLC) before storage ([2]; start value) | purity (according to HPLC) after storage ([2]; storage under atmospheric conditions at 60-70° C.) | sum of by-products on storage ([2]; storage under atmospheric conditions, 60-70° C.) | dissolution [3]
1 | COc1ccnc(C[S+]([O-])c2nc3cc(OC(F)F)ccc3[n-]2)c1OC.[Na+] (single isomer, unassigned; (-)) [(−)-pantoprazole sodium] | changes to brown, with formation of considerable amounts of decomposition products | does not form a stable storage form | 99.5% | 96-97% |  | 
2 | COc1ccnc(C[S+]([O-])c2nc3cc(OC(F)F)ccc3[n-]2)c1OC.O.[Mg+2].[OH-] (stereo not drawn) [Example 2, Magnesium (−)-{[5-(difluoromethoxy)]-2-[(3,4-dimethoxy-2-pyridinyl)methylsulphinyl]-1H-benzimidazolide}hydroxy monohydrate] | completely stable for one week and shows virtually no discolouration or decomposition |  |  |  | remains virtually constant | faster dissolution than the racemic pantoprazole magnesium dihydrate
